Results: PubChem BioAssay AID2060892 (Molecular Pharmacology Branch, DTP, NCI, 2025)

System: HOP-62 complex spheroids with HUVEC/MSC, viability
Test: Anticancer human tumor HOP-62 cell line growth inhibition [RAS];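 note: spheroids exposed to agents for seven days before readout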;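 for viability, T/C: 100% = DMSO vehicle control viability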
Conditions: for IC50: curve of first compound; for viability, T/C: stronger effect = lower value
Outline: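 Multi-cell-type spheroids: tumor cells plus HUVEC endothelial cells and mesenchymal stem cells. RAS-pathway inhibitors were combined with targeted agents, each dosed in half-log steps down from clinical Cmax, or from 10 microM when Cmax was unknown.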

[1] = second compound 0.000949 µM, first compound 0.0316 µM
[2] = second compound 0.000949 µM, first compound 0.1 µM
[3] = second compound 0.000949 µM, first compound 0.316 µM
[4] = second compound 0.000949 µM, first compound 1 µM
[5] = second compound 0.003 µM, first compound 0.0316 µM
[6] = second compound 0.003 µM, first compound 0.1 µM
[7] = second compound 0.003 µM, first compound 0.316 µM
[8] = second compound 0.003 µM, first compound 1 µM
[9] = second compound 0.00949 µM, first compound 0.0316 µM
[10] = second compound 0.00949 µM, first compound 0.1 µM
[11] = second compound 0.00949 µM, first compound 0.316 µM
[12] = second compound 0.00949 µM, first compound 1 µM
[13] = second compound 0.03 µM, first compound 0.0316 µM
[14] = second compound 0.03 µM, first compound 0.1 µM
[15] = second compound 0.03 µM, first compound 0.316 µM
[16] = second compound 0.03 µM, first compound 1 µM
[17] = second compound 0.0949 µM, first compound 0.0316 µM
[18] = second compound 0.0949 µM, first compound 0.1 µM
[19] = second compound 0.0949 µM, first compound 0.316 µM
[20] = second compound 0.0949 µM, first compound 1 µM
[21] = second compound 0.3 µM, first compound 0.0316 µM
[22] = second compound 0.3 µM, first compound 0.1 µM
[23] = second compound 0.3 µM, first compound 0.316 µM
[24] = second compound 0.3 µM, first compound 1 µM
[25] = second compound 0.000949 µM, first compound 3.16 µM
[26] = second compound 0.000949 µM, first compound 10 µM
[27] = second compound 0.003 µM, first compound 3.16 µM
[28] = second compound 0.003 µM, first compound 10 µM
[29] = second compound 0.00949 µM, first compound 3.16 µM
[30] = second compound 0.00949 µM, first compound 10 µM
[31] = second compound 0.03 µM, first compound 3.16 µM
[32] = second compound 0.03 µM, first compound 10 µM
[33] = second compound 0.0949 µM, first compound 3.16 µM
[34] = second compound 0.0949 µM, first compound 10 µM
[35] = second compound 0.3 µM, first compound 3.16 µM
[36] = second compound 0.3 µM, first compound 10 µM

## CCN1CCN(Cc2ccc(Nc3ncc(F)c(-c4cc(F)c5nc(C)n(C(C)C)c5c4)n3)nc2)CC1 + CCn1c(-c2cc(N3CCN(C)CC3)cnc2C(C)OC)c2c3cc(ccc31)-c1csc(n1)CC(NC(=O)C1CC1C)C(=O)N1CCCC(N1)C(=O)OCC(C)(C)C2
Second compound 0.000949 µM
  IC50: > 1 µM
Second compound 0.003 µM
  IC50: > 1 µM
Second compound 0.00949 µM
  IC50: > 1 µM
Second compound 0.03 µM
  IC50: 0.0704 µM
Second compound 0.0949 µM
  IC50: < 0.00316 µM
Second compound 0.3 µM
  IC50: < 0.00316 µM
Second compound 0.000949 µM, first compound 0.00316 µM
  viability, T/C: 121%
Second compound 0.000949 µM, first compound 0.01 µM
  viability, T/C: 117%
[1]
  viability, T/C: 85.5%
[2]
  viability, T/C: 109%
[3]
  viability, T/C: 114%
[4]
  viability, T/C: 87.8%
Second compound 0.003 µM, first compound 0.00316 µM
  viability, T/C: 97.9%
Second compound 0.003 µM, first compound 0.01 µM
  viability, T/C: 81.7%
[5]
  viability, T/C: 78.2%
[6]
  viability, T/C: 90.4%
[7]
  viability, T/C: 104%
[8]
  viability, T/C: 62.6%
Second compound 0.00949 µM, first compound 0.00316 µM
  viability, T/C: 70.7%
Second compound 0.00949 µM, first compound 0.01 µM
  viability, T/C: 57.9%
[9]
  viability, T/C: 68.2%
[10]
  viability, T/C: 74.3%
[11]
  viability, T/C: 57.3%
[12]
  viability, T/C: 50.8%
Second compound 0.03 µM, first compound 0.00316 µM
  viability, T/C: 52.8%
Second compound 0.03 µM, first compound 0.01 µM
  viability, T/C: 52.4%
[13]
  viability, T/C: 51.9%
[14]
  viability, T/C: 49%
[15]
  viability, T/C: 32.6%
[16]
  viability, T/C: 50.4%
Second compound 0.0949 µM, first compound 0.00316 µM
  viability, T/C: 38.4%
Second compound 0.0949 µM, first compound 0.01 µM
  viability, T/C: 42.8%
[17]
  viability, T/C: 39.2%
[18]
  viability, T/C: 32.4%
[19]
  viability, T/C: 32.6%
[20]
  viability, T/C: 47%
Second compound 0.3 µM, first compound 0.00316 µM
  viability, T/C: 36.6%
Second compound 0.3 µM, first compound 0.01 µM
  viability, T/C: 37.1%
[21]
  viability, T/C: 35.2%
[22]
  viability, T/C: 33.4%
[23]
  viability, T/C: 40.7%
[24]
  viability, T/C: 45.3%

## Cc1nc(N2CCC3(CC2)COC(C)C3N)c(CO)nc1Sc1ccnc(N)c1Cl (stereo unspecified) + CCn1c(-c2cc(N3CCN(C)CC3)cnc2C(C)OC)c2c3cc(ccc31)-c1csc(n1)CC(NC(=O)C1CC1C)C(=O)N1CCCC(N1)C(=O)OCC(C)(C)C2
Second compound 0.000949 µM
  IC50: 1.88 µM
Second compound 0.003 µM
  IC50: 0.439 µM
Second compound 0.00949 µM
  IC50: 0.124 µM
Second compound 0.03 µM
  IC50: < 0.0316 µM
Second compound 0.0949 µM
  IC50: < 0.0316 µM
Second compound 0.3 µM
  IC50: < 0.0316 µM
[1]
  viability, T/C: 110%
[2]
  viability, T/C: 98.2%
[3]
  viability, T/C: 50.6%
[4]
  viability, T/C: 63.7%
[25]
  viability, T/C: 56.7%
[26]
  viability, T/C: 21.8%
[5]
  viability, T/C: 83.8%
[6]
  viability, T/C: 66.5%
[7]
  viability, T/C: 47.2%
[8]
  viability, T/C: 45.6%
[27]
  viability, T/C: 33.1%
[28]
  viability, T/C: 18.4%
[9]
  viability, T/C: 71.4%
[10]
  viability, T/C: 49.3%
[11]
  viability, T/C: 40.6%
[12]
  viability, T/C: 31.8%
[29]
  viability, T/C: 24%
[30]
  viability, T/C: 19%
[13]
  viability, T/C: 46.5%
[14]
  viability, T/C: 40.6%
[15]
  viability, T/C: 36.9%
[16]
  viability, T/C: 24.6%
[31]
  viability, T/C: 16.8%
[32]
  viability, T/C: 20.9%
[17]
  viability, T/C: 37.9%
[18]
  viability, T/C: 32.6%
[19]
  viability, T/C: 27.4%
[20]
  viability, T/C: 20.6%
[33]
  viability, T/C: 13.9%
[34]
  viability, T/C: 17.9%
[21]
  viability, T/C: 37.1%
[22]
  viability, T/C: 29.9%
[23]
  viability, T/C: 28.8%
[24]
  viability, T/C: 19.9%
[35]
  viability, T/C: 18.4%
[36]
  viability, T/C: 16%

## NC1c2ccccc2OC12CCN(c1cnc3c(N4CCCc5ncccc54)n[nH]c3n1)CC2 (stereo unspecified) + CCn1c(-c2cc(N3CCN(C)CC3)cnc2C(C)OC)c2c3cc(ccc31)-c1csc(n1)CC(NC(=O)C1CC1C)C(=O)N1CCCC(N1)C(=O)OCC(C)(C)C2
Second compound 0.000949 µM
  IC50: 0.18 µM
Second compound 0.003 µM
  IC50: 0.072 µM
Second compound 0.00949 µM
  IC50: < 0.0316 µM
Second compound 0.03 µM
  IC50: < 0.0316 µM
Second compound 0.0949 µM
  IC50: < 0.0316 µM
Second compound 0.3 µM
  IC50: < 0.0316 µM
[1]
  viability, T/C: 87.9%
[2]
  viability, T/C: 65.9%
[3]
  viability, T/C: 33.9%
[4]
  viability, T/C: 28.5%
[25]
  viability, T/C: 28.1%
[26]
  viability, T/C: 17.6%
[5]
  viability, T/C: 72.5%
[6]
  viability, T/C: 40.5%
[7]
  viability, T/C: 25.3%
[8]
  viability, T/C: 25%
[27]
  viability, T/C: 17.7%
[28]
  viability, T/C: 14%
[9]
  viability, T/C: 47.4%
[10]
  viability, T/C: 29.3%
[11]
  viability, T/C: 25%
[12]
  viability, T/C: 17.9%
[29]
  viability, T/C: 16.5%
[30]
  viability, T/C: 13.3%
[13]
  viability, T/C: 42.9%
[14]
  viability, T/C: 28.7%
[15]
  viability, T/C: 22.4%
[16]
  viability, T/C: 16.7%
[31]
  viability, T/C: 11.3%
[32]
  viability, T/C: 13.6%
[17]
  viability, T/C: 30.5%
[18]
  viability, T/C: 24.8%
[19]
  viability, T/C: 18.6%
[20]
  viability, T/C: 17.5%
[33]
  viability, T/C: 11.2%
[34]
  viability, T/C: 12.8%
[21]
  viability, T/C: 31.9%
[22]
  viability, T/C: 23.6%
[23]
  viability, T/C: 18.4%
[24]
  viability, T/C: 15.6%
[35]
  viability, T/C: 12.5%
[36]
  viability, T/C: 14.3%
